Data reported in ChEMBL document CHEMBL3351767, “The discovery of Polo-like kinase 4 inhibitors: design and optimization of spiro[cyclopropane-1,3'[3H]indol]-2'(1'H).ones as orally bioavailable antitumor agents” (J Med Chem, 2015).
pIC50: −log10 of the molar value. In brackets after ≈: the same amount, converted by molar mass.

Experiments:
[1] = tested on: MDA-MB-231; assay: Cytotoxicity against human MDA-MB-231 cells after 5 days by SRB assay; type: functional; settings: MDA-MB-231, 120 h
[2] = Cmax in SCID mouse at 25 mg/kg, po by LCMS/MS method; type: ADME, organism-based; design: dose 25 mg/kg, route oral; settings: in vivo
[3] = target: T1, Cytochrome P450 1A2 (Homo sapiens, UniProt P05177); assay: Inhibition of CYP1A2 (unknown origin) using CEC substrate after 15 mins by fluorescence assay; type: ADME
T1 sequence (P05177 whole entry): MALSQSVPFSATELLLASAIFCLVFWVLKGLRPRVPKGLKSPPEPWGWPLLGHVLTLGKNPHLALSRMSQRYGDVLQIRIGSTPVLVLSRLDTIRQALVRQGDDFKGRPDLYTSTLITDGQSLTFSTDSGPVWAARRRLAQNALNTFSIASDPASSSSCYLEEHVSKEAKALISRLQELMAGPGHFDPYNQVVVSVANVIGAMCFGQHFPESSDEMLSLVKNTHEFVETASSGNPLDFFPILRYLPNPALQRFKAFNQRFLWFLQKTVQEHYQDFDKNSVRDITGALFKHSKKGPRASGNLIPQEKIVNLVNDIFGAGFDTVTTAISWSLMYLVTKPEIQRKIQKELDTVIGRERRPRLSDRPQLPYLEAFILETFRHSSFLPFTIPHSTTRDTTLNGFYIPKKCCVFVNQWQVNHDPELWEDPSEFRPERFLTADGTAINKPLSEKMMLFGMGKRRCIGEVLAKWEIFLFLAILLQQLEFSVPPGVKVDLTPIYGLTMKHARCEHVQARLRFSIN

[4] = target: Cytochrome P450 2C19 (Homo sapiens, UniProt P33261); assay: Inhibition of CYP2C19 (unknown origin) using MFC substrate after 30 mins by fluorescence assay; type: ADME
[5] = target: Cytochrome P450 3A4 (Homo sapiens, UniProt P08684); assay: Inhibition of CYP3A4 (unknown origin) using BFC substrate after 30 mins by fluorescence assay; type: ADME
[6] = tested on: MCF7; assay: Cytotoxicity against human MCF7 cells after 5 days by SRB assay; type: functional; settings: MCF7, 120 h
[7] = target: Cytochrome P450 2C9 (Homo sapiens, UniProt P11712); assay: Inhibition of CYP2C9 (unknown origin) using MFC substrate after 45 mins by fluorescence assay; type: ADME
[8] = Cytotoxicity against human SKBR3 cells after 5 days by SRB assay; type: functional; settings: SK-BR-3, 120 h
[9] = target: Cytochrome P450 2D6 (Homo sapiens, UniProt P10635); assay: Inhibition of CYP2D6 (unknown origin) using AMMC substrate after 45 mins by fluorescence assay; type: ADME
[10] = AUC in SCID mouse at 25 mg/kg, po by LCMS/MS method; type: ADME, organism-based; design: dose 25 mg/kg, route oral; settings: plasma
[11] = tested on: MDA-MB-468; assay: Cytotoxicity against human MDA-MB-468 cells after 5 days by SRB assay; type: functional; settings: MDA-MB-468, 120 h
[12] = target: Vascular endothelial growth factor receptor 2 (Homo sapiens, UniProt P35968); assay: Inhibition of KDR (unknown origin) by FRET-based homogeneous assay
[13] = target: T2, Receptor-type tyrosine-protein kinase FLT3 (Homo sapiens, UniProt P36888); assay: Inhibition of FLT3 (unknown origin) by FRET-based homogeneous assay
T2 sequence (P36888 whole entry): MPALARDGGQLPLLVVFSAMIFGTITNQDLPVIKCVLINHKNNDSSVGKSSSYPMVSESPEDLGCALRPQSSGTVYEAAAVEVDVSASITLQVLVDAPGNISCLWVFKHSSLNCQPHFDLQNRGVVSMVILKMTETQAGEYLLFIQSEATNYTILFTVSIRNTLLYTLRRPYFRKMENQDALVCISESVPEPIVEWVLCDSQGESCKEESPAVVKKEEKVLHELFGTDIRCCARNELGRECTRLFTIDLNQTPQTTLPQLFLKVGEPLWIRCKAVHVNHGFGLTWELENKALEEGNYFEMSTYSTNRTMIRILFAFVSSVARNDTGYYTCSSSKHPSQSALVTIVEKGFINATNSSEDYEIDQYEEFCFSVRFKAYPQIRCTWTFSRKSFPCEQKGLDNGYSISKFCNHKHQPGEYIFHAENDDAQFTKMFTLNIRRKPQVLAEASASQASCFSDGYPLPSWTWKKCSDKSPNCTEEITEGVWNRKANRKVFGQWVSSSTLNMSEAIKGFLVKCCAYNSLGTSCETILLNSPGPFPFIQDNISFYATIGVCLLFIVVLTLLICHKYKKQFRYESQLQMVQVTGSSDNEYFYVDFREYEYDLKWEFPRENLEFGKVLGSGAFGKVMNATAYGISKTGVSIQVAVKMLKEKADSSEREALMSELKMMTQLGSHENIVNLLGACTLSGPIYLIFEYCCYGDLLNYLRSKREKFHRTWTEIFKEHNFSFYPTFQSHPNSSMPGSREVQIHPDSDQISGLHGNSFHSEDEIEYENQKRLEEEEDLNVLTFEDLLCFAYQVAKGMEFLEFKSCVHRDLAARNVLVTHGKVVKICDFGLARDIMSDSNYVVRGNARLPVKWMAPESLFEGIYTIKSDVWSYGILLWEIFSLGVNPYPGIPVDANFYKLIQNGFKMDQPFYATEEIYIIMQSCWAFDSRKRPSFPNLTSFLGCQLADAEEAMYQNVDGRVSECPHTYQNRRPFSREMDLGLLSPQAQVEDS

[14] = Cmax in SCID mouse at 50 mg/kg, ip after 8 hrs by LCMS/MS method; type: ADME, organism-based; design: dose 50 mg/kg, route intraperitoneal; settings: in vivo
[15] = Half life in mouse liver microsomes at 1 uM in presence of NADPH by LC-MS method; type: ADME
[16] = Half life in human liver microsomes at 1 uM in presence of NADPH by LC-MS method; type: ADME
[17] = Aqueous solubility at pH 7.4; type: physicochemical; settings: buffer
[18] = AUC in SCID mouse at 50 mg/kg, ip after 8 hrs by LCMS/MS method; type: ADME, organism-based; design: time < 8 hr, dose 50 mg/kg, route intraperitoneal; settings: plasma
[19] = Protein binding in plasma (unknown origin); type: ADME, cell-free; settings: read-out: PPB (converted)

Cytochrome P450 2C19, sequence (P33261 whole entry): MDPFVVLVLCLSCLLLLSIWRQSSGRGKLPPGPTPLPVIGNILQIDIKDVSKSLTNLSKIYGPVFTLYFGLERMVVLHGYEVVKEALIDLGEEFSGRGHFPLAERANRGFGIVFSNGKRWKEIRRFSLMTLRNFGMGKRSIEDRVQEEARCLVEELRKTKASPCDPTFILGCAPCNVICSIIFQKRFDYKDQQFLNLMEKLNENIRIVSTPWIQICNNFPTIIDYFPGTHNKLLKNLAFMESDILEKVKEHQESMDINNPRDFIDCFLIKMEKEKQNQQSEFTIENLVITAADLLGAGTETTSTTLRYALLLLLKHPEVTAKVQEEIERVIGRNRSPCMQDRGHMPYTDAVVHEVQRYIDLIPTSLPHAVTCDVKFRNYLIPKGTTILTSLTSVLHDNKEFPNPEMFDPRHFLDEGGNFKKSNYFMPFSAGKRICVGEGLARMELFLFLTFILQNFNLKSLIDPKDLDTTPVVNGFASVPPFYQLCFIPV
Cytochrome P450 2C9, sequence (P11712 whole entry): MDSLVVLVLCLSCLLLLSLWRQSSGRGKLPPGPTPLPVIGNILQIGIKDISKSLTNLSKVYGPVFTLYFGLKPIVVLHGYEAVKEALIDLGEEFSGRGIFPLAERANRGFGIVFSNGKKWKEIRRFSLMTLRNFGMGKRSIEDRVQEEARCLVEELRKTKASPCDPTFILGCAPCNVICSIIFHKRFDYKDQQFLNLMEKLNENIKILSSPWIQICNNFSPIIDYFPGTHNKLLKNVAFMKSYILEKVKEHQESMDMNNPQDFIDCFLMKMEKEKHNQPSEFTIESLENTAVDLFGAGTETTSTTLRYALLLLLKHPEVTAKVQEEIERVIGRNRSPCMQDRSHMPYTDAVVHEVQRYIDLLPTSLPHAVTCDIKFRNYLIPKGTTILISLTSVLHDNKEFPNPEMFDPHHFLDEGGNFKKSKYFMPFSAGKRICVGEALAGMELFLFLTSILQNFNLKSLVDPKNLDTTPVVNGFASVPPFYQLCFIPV
Vascular endothelial growth factor receptor 2, sequence (P35968 whole entry): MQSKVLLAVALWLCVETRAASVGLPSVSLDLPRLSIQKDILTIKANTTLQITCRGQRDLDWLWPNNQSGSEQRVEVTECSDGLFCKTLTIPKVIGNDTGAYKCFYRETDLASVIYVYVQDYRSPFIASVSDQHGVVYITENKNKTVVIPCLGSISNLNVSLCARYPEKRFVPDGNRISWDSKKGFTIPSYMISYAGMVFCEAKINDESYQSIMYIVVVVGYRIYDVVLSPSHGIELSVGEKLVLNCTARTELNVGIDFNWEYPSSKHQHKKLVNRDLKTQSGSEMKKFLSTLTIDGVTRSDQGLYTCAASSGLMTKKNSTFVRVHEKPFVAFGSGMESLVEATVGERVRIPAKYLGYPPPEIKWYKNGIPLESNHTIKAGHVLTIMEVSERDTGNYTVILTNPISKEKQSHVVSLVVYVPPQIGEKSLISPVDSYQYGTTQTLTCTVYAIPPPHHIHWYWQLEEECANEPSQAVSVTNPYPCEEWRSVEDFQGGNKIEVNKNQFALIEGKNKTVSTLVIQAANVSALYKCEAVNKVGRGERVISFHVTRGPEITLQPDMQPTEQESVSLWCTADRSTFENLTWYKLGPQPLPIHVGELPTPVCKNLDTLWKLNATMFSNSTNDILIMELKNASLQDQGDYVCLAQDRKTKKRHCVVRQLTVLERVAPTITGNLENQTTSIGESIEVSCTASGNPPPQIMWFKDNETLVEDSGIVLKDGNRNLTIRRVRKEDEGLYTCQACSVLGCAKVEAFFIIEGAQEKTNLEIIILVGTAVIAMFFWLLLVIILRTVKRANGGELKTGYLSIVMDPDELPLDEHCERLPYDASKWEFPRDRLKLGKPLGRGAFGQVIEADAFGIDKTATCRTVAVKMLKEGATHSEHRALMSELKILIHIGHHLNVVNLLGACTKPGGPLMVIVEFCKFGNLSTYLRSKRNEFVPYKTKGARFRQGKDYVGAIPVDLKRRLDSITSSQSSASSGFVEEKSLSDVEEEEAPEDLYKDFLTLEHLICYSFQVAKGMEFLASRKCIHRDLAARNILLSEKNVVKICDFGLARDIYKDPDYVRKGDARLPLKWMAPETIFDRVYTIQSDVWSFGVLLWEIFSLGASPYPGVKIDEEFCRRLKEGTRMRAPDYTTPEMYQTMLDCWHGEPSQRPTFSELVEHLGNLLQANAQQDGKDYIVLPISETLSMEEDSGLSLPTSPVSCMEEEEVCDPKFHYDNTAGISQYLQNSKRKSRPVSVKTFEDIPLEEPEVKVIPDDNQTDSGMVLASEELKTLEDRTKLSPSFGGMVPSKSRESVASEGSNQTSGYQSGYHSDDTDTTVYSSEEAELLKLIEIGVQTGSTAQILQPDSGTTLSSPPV
Cytochrome P450 3A4, sequence (P08684 whole entry): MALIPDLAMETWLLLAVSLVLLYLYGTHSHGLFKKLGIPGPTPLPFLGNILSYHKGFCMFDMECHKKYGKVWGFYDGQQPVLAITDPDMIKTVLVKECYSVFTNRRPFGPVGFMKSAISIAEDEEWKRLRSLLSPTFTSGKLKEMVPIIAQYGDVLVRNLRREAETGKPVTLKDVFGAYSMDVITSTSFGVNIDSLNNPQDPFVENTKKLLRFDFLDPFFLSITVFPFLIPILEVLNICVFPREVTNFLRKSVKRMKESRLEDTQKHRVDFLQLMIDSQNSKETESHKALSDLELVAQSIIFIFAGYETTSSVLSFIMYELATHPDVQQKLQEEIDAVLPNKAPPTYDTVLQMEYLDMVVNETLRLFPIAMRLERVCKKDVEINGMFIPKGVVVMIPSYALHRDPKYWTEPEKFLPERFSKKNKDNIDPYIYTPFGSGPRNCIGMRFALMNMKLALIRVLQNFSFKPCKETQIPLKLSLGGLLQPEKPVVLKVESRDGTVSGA
Cytochrome P450 2D6, sequence (P10635 whole entry): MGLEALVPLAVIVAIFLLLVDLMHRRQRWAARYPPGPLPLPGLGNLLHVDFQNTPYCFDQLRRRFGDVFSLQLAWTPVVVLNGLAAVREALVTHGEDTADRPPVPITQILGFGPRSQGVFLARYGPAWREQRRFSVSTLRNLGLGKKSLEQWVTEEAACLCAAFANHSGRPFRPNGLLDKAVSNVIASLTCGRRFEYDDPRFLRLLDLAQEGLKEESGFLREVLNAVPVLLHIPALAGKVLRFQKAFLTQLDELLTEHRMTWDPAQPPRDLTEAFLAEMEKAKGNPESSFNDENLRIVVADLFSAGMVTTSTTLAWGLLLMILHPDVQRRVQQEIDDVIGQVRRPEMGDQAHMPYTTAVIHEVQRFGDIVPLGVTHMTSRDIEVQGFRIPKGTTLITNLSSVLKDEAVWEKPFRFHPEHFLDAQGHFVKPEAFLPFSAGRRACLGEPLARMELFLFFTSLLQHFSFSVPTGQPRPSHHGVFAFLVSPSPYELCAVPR

Structure (SMILES) | GI50 [1] [nM] | Cmax [2] [ng/mL] | pIC50 [3] | pIC50 [4] | pIC50 [5] | GI50 [6] [nM] | pIC50 [7] | GI50 [8] [nM] | pIC50 [9] | AUC [10] [ng·h/mL] | GI50 [11] [nM] | pIC50 [12] | pIC50 [13] | Cmax [14] [ng/mL] | half-life at 1 µM [15] [min] | half-life at 1 µM [16] [min] | solubility [17] [µg/mL] | AUC at 8 h [18] [ng·h/mL] | fraction unbound [19]
O=C1Nc2ccccc2[C@]12C[C@H]2c1ccc2c(/C=C/c3cccnc3)n[nH]c2c1 (relative stereo) | 50000 | 37 | 6.85 | 6.96 | < 6.00 | 3600 | 6.49 | 14700 | < 6.00 | 93 | 9 | – | – | – | – | – | – | – | –
CN1CCN(Cc2ccc(/C=C/c3n[nH]c4cc([C@@H]5C[C@@]56C(=O)Nc5ccccc56)ccc34)cc2)CC1 (relative stereo) | 2500 | 190 | < 6.00 | < 6.00 | < 5.00 | 10 | < 6.00 | 6000 | < 5.00 | 580 | 10 | 6.92 | 6.92 | – | – | – | – | – | –
O=C1Nc2ccc(F)cc2[C@]12C[C@H]2c1ccc2c(/C=C/c3ccc(CN4CCOCC4)cc3)n[nH]c2c1 | 720 | 3700 | < 5.00 | 6.00 | < 6.00 | 900 | 6.30 | 10000 | < 5.00 | 7940 | 20 | – | – | – | – | – | – | – | –
Cc1ccc(/C=C/c2n[nH]c3cc([C@@H]4C[C@@]45C(=O)Nc4ccccc45)ccc23)c(C)n1 (relative stereo) | > 50000 | – | – | – | – | 6800 | – | 50000 | – | – | 70 | 5.68 | 7.23 | – | – | – | – | – | –
CN(C)Cc1ccc(/C=C/c2n[nH]c3cc([C@@H]4C[C@@]45C(=O)Nc4ccc(OC(F)F)cc45)ccc23)cc1 (relative stereo) | 4800 | – | – | – | – | 25 | – | 1600 | – | – | 5 | 5.31 | 7.49 | – | – | – | – | – | –
O=C1Nc2ccccc2[C@]12C[C@H]2c1ccc2c(/C=C/c3ccc(CN4CCOCC4)cc3)n[nH]c2c1 (relative stereo) | < 10 | 1800 | < 5.00 | 5.74 | < 6.00 | 10 | 5.85 | 11300 | < 5.00 | 4300 | 10 | 5.85 | – | – | – | – | – | – | –
COc1ccc2c(c1)[C@]1(C[C@H]1c1ccc3c(/C=C/c4ccc(CN5CCOCC5)cc4)n[nH]c3c1)C(=O)N2 (relative stereo) | < 10 | 1700 | < 5.00 | 5.68 | < 6.00 | < 10 | 5.85 | 13800 | < 6.00 | 4900 | < 10 | 4.62 | – | – | – | – | – | – | –
COc1ccc2c(c1)[C@]1(C[C@H]1c1ccc3c(/C=C/c4ccc(N5CCN(C)CC5)nc4)n[nH]c3c1)C(=O)N2 (relative stereo) | 10 | – | < 5.00 | 5.80 | 5.68 | 10 | 5.80 | 13400 | < 5.00 | – | 6 | 5.70 | – | 200 | 9 | 16 | 0.19 (≈ 0.375 µM) | 450 | –
O=C1Nc2ccccc2[C@]12C[C@H]2c1ccc2cn[nH]c2c1 (relative stereo) | – | – | < 5.00 | 5.00 | < 5.00 | 16000 | < 5.00 | – | < 5.00 | – | 14000 | < 5.00 | 5.49 | 1200 | 49 | > 60 | 8 (≈ 29.1 µM) | 1620 | 0.17
O=C1Nc2ccccc2/C1=C/c1ccc2cn[nH]c2c1 | – | – | 7.30 | 6.68 | 5.00 | 5300 | 6.30 | – | < 6.00 | – | 4600 | 5.60 | 6.85 | 11 | 5 | 54 | 0.7 (≈ 2.68 µM) | 61 | < 0.001
